In ChEMBL document CHEMBL4382195, “Discovery of Novel Topoisomerase II Inhibitors by Medicinal Chemistry Approaches” (J Med Chem, 2018):

How the values were obtained:
[1] = target: DNA topoisomerase 2-alpha (Homo sapiens, UniProt P11388); experiment: Inhibition of recombinant human topoisomerase 2alpha using supercoiled pNO1 plasmid as substrate after 30 mins by SYBR-GOLD staining based fluorimetric analysis
DNA topoisomerase 2-beta = DNA topoisomerase 2-beta (Homo sapiens, UniProt Q02880); experiment: Poison activity at recombinant human topoisomerase 2beta using pBR322 plasmid as substrate after 30 mins by ethidium bromide staining based agarose gel electrophoresis
MCF7 = experiment: Antiproliferative activity against human MCF7 cells after 24 hrs by MTT assay; assay type: functional, cell-based; settings: MCF7, 24 h
MDA-MB-231 = experiment: Antiproliferative activity against human MDA-MB-231 cells after 24 hrs by MTT assay; assay type: functional, cell-based; settings: MDA-MB-231, 24 h
[2] = tested on: Panel NCI-60 (60 carcinoma cell lines); experiment: Antiproliferative activity against human NCI60 cells after 48 hrs by SRB assay; assay type: functional

Sequence of DNA topoisomerase 2-beta (Q02880 whole entry): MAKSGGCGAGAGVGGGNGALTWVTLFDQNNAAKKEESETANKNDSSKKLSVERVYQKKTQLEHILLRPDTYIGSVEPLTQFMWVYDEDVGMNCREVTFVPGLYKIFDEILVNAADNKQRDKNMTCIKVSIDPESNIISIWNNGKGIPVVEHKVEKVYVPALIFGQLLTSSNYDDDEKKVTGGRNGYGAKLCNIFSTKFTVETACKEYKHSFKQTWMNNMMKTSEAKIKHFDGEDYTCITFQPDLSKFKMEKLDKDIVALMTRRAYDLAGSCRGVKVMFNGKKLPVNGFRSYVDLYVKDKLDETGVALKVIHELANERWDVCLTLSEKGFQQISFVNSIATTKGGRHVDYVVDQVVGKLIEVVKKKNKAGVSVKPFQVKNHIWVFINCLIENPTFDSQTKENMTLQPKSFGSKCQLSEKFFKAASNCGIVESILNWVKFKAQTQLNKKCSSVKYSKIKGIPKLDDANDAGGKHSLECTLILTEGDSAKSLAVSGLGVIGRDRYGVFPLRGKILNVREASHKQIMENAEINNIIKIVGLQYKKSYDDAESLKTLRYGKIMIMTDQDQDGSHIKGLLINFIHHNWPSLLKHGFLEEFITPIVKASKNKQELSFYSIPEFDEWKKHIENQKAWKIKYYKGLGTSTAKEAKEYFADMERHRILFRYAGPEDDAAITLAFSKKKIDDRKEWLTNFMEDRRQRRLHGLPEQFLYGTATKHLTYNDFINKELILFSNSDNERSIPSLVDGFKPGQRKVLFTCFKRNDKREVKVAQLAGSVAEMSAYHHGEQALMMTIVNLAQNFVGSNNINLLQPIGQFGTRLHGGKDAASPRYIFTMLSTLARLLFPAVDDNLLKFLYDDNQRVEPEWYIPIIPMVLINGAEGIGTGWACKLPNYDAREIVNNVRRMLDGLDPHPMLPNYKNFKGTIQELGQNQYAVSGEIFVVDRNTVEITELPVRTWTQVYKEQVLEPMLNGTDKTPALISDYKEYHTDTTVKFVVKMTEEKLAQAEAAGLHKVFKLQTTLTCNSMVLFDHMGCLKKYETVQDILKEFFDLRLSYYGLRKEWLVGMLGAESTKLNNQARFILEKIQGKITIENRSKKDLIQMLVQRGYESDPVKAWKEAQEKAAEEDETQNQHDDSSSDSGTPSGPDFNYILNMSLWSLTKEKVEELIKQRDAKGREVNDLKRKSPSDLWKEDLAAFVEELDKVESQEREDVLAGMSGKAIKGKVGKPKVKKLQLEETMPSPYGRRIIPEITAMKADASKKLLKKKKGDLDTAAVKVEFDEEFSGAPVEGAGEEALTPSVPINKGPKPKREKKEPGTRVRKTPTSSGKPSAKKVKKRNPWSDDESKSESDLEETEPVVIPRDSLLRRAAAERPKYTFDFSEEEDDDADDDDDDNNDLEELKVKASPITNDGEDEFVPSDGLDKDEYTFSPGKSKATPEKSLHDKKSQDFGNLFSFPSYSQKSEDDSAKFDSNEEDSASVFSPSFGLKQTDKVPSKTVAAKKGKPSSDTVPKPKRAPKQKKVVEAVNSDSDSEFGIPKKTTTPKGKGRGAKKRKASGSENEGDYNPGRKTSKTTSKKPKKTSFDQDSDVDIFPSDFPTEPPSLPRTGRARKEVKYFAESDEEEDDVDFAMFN
Sequence of DNA topoisomerase 2-alpha (P11388 whole entry): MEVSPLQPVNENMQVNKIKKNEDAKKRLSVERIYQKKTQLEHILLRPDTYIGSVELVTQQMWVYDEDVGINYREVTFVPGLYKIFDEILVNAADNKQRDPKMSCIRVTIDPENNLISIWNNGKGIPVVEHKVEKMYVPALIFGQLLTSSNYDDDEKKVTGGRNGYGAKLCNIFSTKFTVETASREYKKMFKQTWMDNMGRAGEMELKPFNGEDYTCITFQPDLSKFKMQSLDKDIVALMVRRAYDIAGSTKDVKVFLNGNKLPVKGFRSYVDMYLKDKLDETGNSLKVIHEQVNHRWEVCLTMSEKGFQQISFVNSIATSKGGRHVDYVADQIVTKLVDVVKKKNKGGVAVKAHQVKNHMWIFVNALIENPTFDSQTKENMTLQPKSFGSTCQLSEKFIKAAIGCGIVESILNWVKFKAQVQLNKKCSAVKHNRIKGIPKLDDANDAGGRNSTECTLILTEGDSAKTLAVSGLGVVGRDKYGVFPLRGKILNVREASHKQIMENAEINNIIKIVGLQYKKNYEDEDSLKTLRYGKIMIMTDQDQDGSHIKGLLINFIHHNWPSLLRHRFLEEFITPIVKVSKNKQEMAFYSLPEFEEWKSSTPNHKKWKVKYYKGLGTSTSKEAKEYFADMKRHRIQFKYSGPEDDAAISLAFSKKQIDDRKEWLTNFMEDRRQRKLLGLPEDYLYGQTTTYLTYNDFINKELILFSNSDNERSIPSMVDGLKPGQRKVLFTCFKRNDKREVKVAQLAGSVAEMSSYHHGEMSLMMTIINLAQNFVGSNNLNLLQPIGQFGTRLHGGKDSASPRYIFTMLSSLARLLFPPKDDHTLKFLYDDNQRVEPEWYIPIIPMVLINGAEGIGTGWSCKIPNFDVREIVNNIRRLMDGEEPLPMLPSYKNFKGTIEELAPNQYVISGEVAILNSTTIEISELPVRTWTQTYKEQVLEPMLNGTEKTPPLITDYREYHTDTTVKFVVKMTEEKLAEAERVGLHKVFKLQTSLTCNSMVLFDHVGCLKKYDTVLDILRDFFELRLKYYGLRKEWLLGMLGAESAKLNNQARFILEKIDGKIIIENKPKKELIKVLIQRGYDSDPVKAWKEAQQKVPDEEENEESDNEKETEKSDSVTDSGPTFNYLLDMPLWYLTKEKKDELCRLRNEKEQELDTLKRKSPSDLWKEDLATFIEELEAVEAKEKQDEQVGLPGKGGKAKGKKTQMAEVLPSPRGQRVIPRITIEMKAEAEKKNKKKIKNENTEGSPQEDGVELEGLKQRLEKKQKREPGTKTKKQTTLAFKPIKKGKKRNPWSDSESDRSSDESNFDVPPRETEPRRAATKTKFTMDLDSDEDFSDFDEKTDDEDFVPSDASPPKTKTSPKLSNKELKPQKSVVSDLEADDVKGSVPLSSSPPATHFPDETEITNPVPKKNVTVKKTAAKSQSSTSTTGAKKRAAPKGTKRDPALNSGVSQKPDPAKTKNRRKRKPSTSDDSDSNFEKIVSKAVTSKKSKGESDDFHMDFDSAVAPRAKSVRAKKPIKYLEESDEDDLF

SMILES | IC50 (MCF7) | IC50 (MDA-MB-231) | other results
O=C(O)c1ccc(Nc2ncnc3nc[nH]c23)cc1 |  |  | IC50 [1]: 44 µM
O=C(O)c1cccc(Nc2ncnc3[nH]cnc23)c1 |  |  | IC50 [1]: 65 µM
CN(C)CCCNc1ccc(NCCCN(C)C)c2c1C(=O)c1ccc(C(=O)Nc3ccc(S(C)(=O)=O)cc3)cc1C2=O |  |  | IC50 (DNA topoisomerase 2-beta): 4.34 to 6.71 µM
CN(C)CCNc1ccc(NCCN(C)C)c2c1C(=O)c1ccc(C(=O)Nc3ccc(S(C)(=O)=O)cc3)cc1C2=O |  |  | IC50 (DNA topoisomerase 2-beta): 5.25 to 9.31 µM
Fc1ccc(Nc2nnc(-c3ccc(Cl)cc3Cl)s2)cc1 | 160 µM | 130 µM | 
COc1cc(S(C)(=O)=O)ccc1NC(=O)c1ccc2c(c1)C(=O)c1c(NCCCN(C)C)ccc(NCCCN(C)C)c1C2=O |  |  | IC50 (DNA topoisomerase 2-beta): 1.06 to 3.33 µM
N[C@@H](Cc1ccc(N(CCCl)CCCl)cc1)C(=O)O |  |  | GI50 [2]: 29 µM
O=C1c2ccccc2C(=O)c2c(NCCNCCO)ccc(NCCNCCO)c21 [AMETANTRONE] |  |  | IC50 (DNA topoisomerase 2-beta): 0.03 to 0.99 µM
Cn1c(CCCC(=O)O)nc2cc(N(CCCl)CCCl)ccc21 [BENDAMUSTINE] |  |  | GI50 [2]: 70 µM
O=C(O)CCCc1ccc(N(CCCl)CCCl)cc1 [CHLORAMBUCIL] |  |  | GI50 [2]: 60 µM
COc1cc([C@@H]2c3cc4c(cc3[C@@H](O[C@@H]3O[C@@H]5CO[C@@H](C)O[C@H]5[C@H](O)[C@H]3O)[C@H]3COC(=O)[C@H]23)OCO4)cc(OC)c1O [ETOPOSIDE] |  |  | GI50 [2]: 12 µM

More lines, main results first:

IC50 (MCF7) | IC50 (MDA-MB-231) | SMILES | other results
140 µM | 170 µM | Oc1cccc(-c2nnc(Nc3cccc(F)c3)s2)c1 | 
> 200 µM | > 200 µM | Clc1ccc(OCc2nnc(Nc3ccc(Br)cc3)s2)c(Cl)c1 | 
> 200 µM | > 200 µM | Fc1cccc(Nc2nnc(-c3cccc(Cl)c3)s2)c1 | 
120 µM | 70 µM | Clc1ccc(-c2nnc(Nc3ccc(Br)cc3)s2)c(Cl)c1 | 
> 200 µM | > 200 µM | Fc1ccc(Nc2nnc(COc3ccc(Cl)cc3Cl)s2)cc1 | 
